Results from publication PMC9234671, “Molecular determinants of αVβ5 localization in flat clathrin lattices – role of αVβ5 in cell adhesion and proliferation” (Journal of Cell Science, 2022).

How the values were obtained:
[1] = test system: GEF-H1 (phospho S886) in PA-JEB and PA-JEB/β4 keratinocytes; assay: Western blot: GEF-H1 phosphorylation; type: cell-based, human; details: after calyculin A, n=3
Method: Proteins were separated by electrophoresis using a Bolt Novex 4–12% gradient Bis-Tris gels (Invitrogen) or 15% SDS-PAGE gels (made in-house), transferred to Immobilon-P transfer membranes (Millipore Corp) and blocked for at least 30 min in 2% BSA in TBST buffer (10 mM Tris-HCl pH 7.5, 150 mM NaCl and 0.3% Tween-20). Primary antibody (diluted 1:1000 in 2% BSA in TBST buffer) incubation took place overnight at 4°C. After washing twice with TBST and twice with TBS, blots were incubated for 1 h hour at room temperature with horseradish peroxidase-conjugated goat anti-mouse-IgG or goat anti-rabbit-IgG (diluted 1:3000 in 2% BSA in TBST buffer). After subsequent washing steps, the bound antibodies were detected by enhanced chemiluminescence using SuperSignal™ West Dura Extended Duration Substrate (ThermoFisher) or Clarity™ Western ECL Substrate (Bio-Rad) as described by the manufacturer. Signal intensities were quantified using ImageJ.
Fig. S4. (A) Representative western blots of phosphorylated myosin light chain (MLC) and GAPDH in PA-JEB/β4 keratinocytes treated with DMSO versus Nocodazole. […]
μm. Quantifications of β5 or β5 mutants clustering in FAs are shown in (C-E). […] Total cells analyzed per condition: 90 (WT, DMSO), 111 (WT, Noco.) (C), 40 (S>E, DMSO), 80 (S>E, Noco.) (D), 65 (S>A, DMSO), 82 (S>A, Noco.) (E). […]

[2] = test system: integrin β5 localization in PA-JEB/β4 keratinocytes; assay: Immunofluorescence: integrin β5 clustering in FAs/FCLs, PA-JEB/β4; type: cell-based, human
Source text: Fig. 3. Serine 759 and 762 are involved in regulating the localization of integrin β5. (A–C) Integrin β5 containing S759/762E or S759/762A mutations (A) were expressed in β5-deficient PA-JEB/β4 keratinocytes and the subcellular distribution of β5 was compared to β5-deficient keratinocytes expressing wild-type (WT) β5. Merged images show integrin β5 (green), vinculin (B) or clathrin (C) (red), actin (blue) and the cell nuclei (cyan). (D,E) Analysis of wild-type versus mutant integrin β5 clustering in FAs or FCLs. (F–I) PA-JEB/β4 keratinocytes were grown in 10% FCS-supplemented DMEM culture medium overnight and then treated with 5 nM calyculin A (Cal.A) or DMSO (vehicle control) for 30 min prior to fixation. Merged images show integrin β5 (green), vinculin (F) or clathrin (H) (red), actin (blue) and the cell nuclei (cyan), quantifications of β5 clustering in FAs or FCLs are shown in G,I. (J,K) Analysis of integrin β5 clustering in FAs or FCLs in PA-JEB keratinocytes after treatment with Cal.A. Representative confocal microscopy images are shown in Fig. S3. Scale bars: 20 μm. Data were obtained from three independent experiments. Total cells analyzed per condition: 109 (WT), 116 (S>E), 103 (S>A) (D), 81 (WT), 77 (S>E), 101 (S>A) (E), 126 and 123 (G), 111 and 101 (I), 106 and 102 (J), 115 and 109 (K). ****P<0.0001 (Mann–Whitney U-test). Box plots range from the 25th to 75th percentile; central line indicates the median; whiskers show smallest to largest value.
PA-JEB/β4 keratinocytes were seeded on glass coverslips and cultured in complete KGM medium for 24 h, and then treated with DMEM plus 10% FCS for 24 h. Other cell lines were seeded on glass coverslips and cultured in DMEM plus 10% FCS. Cells were fixed with 2% paraformaldehyde (PFA) for 10 min, permeabilized with 0.2% Triton X-100 for 5 min, and blocked with PBS containing 2% bovine serum albumin (BSA; Sigma) for at least 30 min. Next, cells were incubated with the primary antibodies for 1 h at room temperature. Cells were washed three times before incubation with the secondary antibodies for 1 h. Additionally, nuclei were stained with DAPI, and filamentous actin was visualized using Alexa Fluor 488 or 647-conjugated phalloidin (Invitrogen). After three washing steps with PBS, the coverslips were mounted onto glass slides in Mowiol. Images were obtained using a Leica TCS SP5 confocal microscope with a 63× (NA 1.4) oil objective.
Image analysis was performed using Fiji (ImageJ) ([Schindelin et al., 2012]; [Schneider et al., 2012]). To quantify integrin clustering in FAs (based on vinculin staining) versus FCLs (clathrin staining), background was subtracted in both channels using a bilateral filter and the region of interest (ROI) was selected at the cell periphery. Colocalization of integrin clusters and FAs or FCLs was determined using the Image Calculator (command ‘multiply’) on both channels and calculating the area of overlapping clusters as a percentage of the total integrin cluster area per cell using the Analyze Particle function.

COC[C@@H]([C@H](O)[C@H](O)C(=O)NCC[C@H](C)c1nc(/C=C/C[C@@H]2O[C@]3(C[C@@H](O)[C@@H]2C)O[C@H]([C@H](C[C@H](O)[C@H](C)[C@H](O)[C@H](C)/C=C(C)/C(C)=C/C=C/C(C)=C\C#N)OC)[C@H](OP(=O)(O)O)C3(C)C)co1)N(C)C [calyculin A]
phosphorylation of GEF-H1 [1]: increase in the phosphorylation of GEF-H1 | localization of integrin β5 in FAs, PA-JEB/β4 ([2]; 5 nM calyculin A versus DMSO, 30 min, 10% FCS DMEM, colocalization with vinculin, three independent experiments): decreased the localization of integrin β5 in FAs | redistribution of the integrin ([2]; calyculin A treatment, summary in discussion): only led to a minor redistribution of the integrin
